In patent publication US10232043B2, “Photoactivated molecules for light-induced modulation of the activity of electrically excitable cells and methods of using the same” (UNIVERSITY OF SOUTHERN CALIFORNIA, priority 2015, dated 2019):
“Also recorded” adds a separate entry of the source.

Key:
[1] = tested on: leech ganglion neurons; assay: Leech ganglion neurons, light-induced action potential firing; assay type: cell-based, Hirudo verbana; conditions: ex vivo leech ganglia
Experimental: Adult leeches Hirudo verbana will be obtained from Niagara Medical Leeches, Inc. (Westbury, N.Y., USA). Groups (20-30) of animals will be kept in glass aquaria with artificial pond water (36 mg/L Instant Ocean salts; Aquarium Systems, Mentor Ohio), in a temperature-controlled room at 16° C. and a 12:12 h light:dark cycle. At the time of experiments, leeches will weigh 1-3 g. Before dissection, the leech will be anesthetized in ice-cold leech saline. Leech saline has the following composition (in mM per liter): NaCl—115, KCl—4, CaCl2—1.8, MgCl2—2, HEPES—10, D-Glucose—5 (Sigma-Aldrich, USA). Individual ganglia will be dissected from the mid-body segments M6-M12, and pinned down in Sylgard-filled dissection box. Medial dorsal longitudinal incision will be made and the blood will be flushed away. Connective tissue and the blood vessel overlaying the ganglion chain will be incised. Dissected ganglia will be transferred to a Petri dish, pinned down in paraffin with six stainless steel pins (dorsal side up). PVNs will be microinjected into the extracellular space of the ganglion with a glass micropipette. Intracellular recording will be performed by penetrating the Retzius neurons with sharp glass electrodes (20-30 MOhm) filled with 3M potassium acetate. […] Neuronal firing will be recorded before and after the injections.

[2] = tested on: mouse chromaffin cells; assay: Carbon-fiber amperometry, light-triggered secretion; assay type: cell-based
Experimental: Carbon fiber electrodes were prepared using established methodology and coupled to an EPC10 amplifier. A +800 mV constant voltage was applied to the electrode relative to the Ag/AgCl bath electrode. The amperometry recordings were sampled at 4 kHz using Pulsemaster (HEKA). Extracellular composition consisted of 120 mM NaCl, 20 mM KCl, 10 mM HEPES, 1 mM MgCl2, 2 mM CaCl2, 10 mM glucose, pH adjusted to 7.2-7.4, and osmolarity adjusted to 290-300. Light stimulation in the blue spectrum originated from a xenon lamp source through a 470/40 nm bandpass excitation filter. The duration of illumination varied and is indicated by bars on figures.
Action potential firing triggers secretion of norepinephrine and epinephrine from adrenal chromaffin cells, which can be readily detected by the technique of carbon-fiber amperometry, thus serving as a surrogate to detect action potential firing. […] Out of 18 RubpyC17-loaded cells tested, 15 cells (83%) experienced increased secretion by at least 100-fold during light illumination. Unlike the changes in light-induced depolarization, light-induced changes in secretion appeared to be more transient One possible explanation for this is that at any moment in time, there are only a small number of release-competent vesicles—the so-called readily releasable pool of vesicles and maintained stimulation causes rapid depletion of the readily releasable pool of vesicles in the initial phase of stimulation.

[3] = tested on: RCS rats; assay: Pupillary light response after eye injection; assay type: in vivo, rat
Excerpt: FIG. 28 illustrates the pupillary light response in RCS rats.
This finding was reproduced in 3 of 3 RCS rats injected with Rubpy-C17, and in 2 of 2 control (sham injection) RCS rats.

CCCCCCCCCCCCCCCCCc1ccnc(-c2cc(C)ccn2)c1.F[P-](F)(F)(F)(F)F.F[P-](F)(F)(F)(F)F.[Ru+2].c1ccc(-c2ccccn2)nc1.c1ccc(-c2ccccn2)nc1 [RubpyC17, [Ru(bpy)2(bpy-C17)](PF6)2]
light-induced action potential firing [1]: respond to illumination by firing action potentials; also recorded: light-induced increases in action potential firing
amperometric current spikes (vesicular secretion) under light ([2]; 2 μM RubpyC17, 488 nm): exhibited numerous amperometric current spikes
cells with increased secretion during light illumination ([2]; 15 of 18 RubpyC17-loaded cells): 83%
increase of secretion during light illumination ([2]; responding cells): at least 100 fold
pupillary light reflex in injected eye ([3]; RCS rat, not in non-injected eye): vigorous pupillary light reflex was observed; also recorded: pupil constricts
time of pupillary light reflex ([3]; injected eye): < 3 s
